This passage reports IC50 results from publication PMC10850561, “Eutypellaolides A–J, Sesquiterpene diversity expansion of the polar fungus Eutypella sp. D-1” (Frontiers in Microbiology, 2024).

Molecules are shown by their SMILES.

For orientation: IC50 means the concentration at which inhibition is half-maximal. A lower IC50 goes with greater potency in that assay.

The target of this assay is T1, PTP1B (Homo sapiens, UniProt P18031).
T1 construct: gene PTPN1
T1 sequence (P18031 1-435): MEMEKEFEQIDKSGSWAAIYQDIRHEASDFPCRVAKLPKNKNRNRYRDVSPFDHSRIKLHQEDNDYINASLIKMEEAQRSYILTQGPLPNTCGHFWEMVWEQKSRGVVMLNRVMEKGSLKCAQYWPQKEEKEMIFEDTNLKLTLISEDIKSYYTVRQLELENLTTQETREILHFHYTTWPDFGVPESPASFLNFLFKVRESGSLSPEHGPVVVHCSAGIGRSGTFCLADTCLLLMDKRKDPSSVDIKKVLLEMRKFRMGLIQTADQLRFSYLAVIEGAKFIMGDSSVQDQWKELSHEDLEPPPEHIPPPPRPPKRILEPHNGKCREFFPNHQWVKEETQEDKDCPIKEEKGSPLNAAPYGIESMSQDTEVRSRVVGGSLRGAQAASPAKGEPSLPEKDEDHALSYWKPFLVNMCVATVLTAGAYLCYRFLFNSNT
Put plainly: PTP1B enzyme inhibition assay in 96-well microplates. The assay is classed as biochemical.
Molecule `CO[C@]1(C)C2=CC3=C(CO)C(=O)OC3=C[C@]2(C)CC[C@@H]1O` [compound 5, Eutypellaolide E] had an IC50 of 44.8 µM. In the case of `CC1=CCC[C@@H]2CC3=C(CO)C(=O)OC3=CC12C` (stereo partly drawn) [compound 11, eut-Guaiane] it was 43.2 µM; in that of `CC1=CC(=O)C[C@@]2(C)C=C3OC(=O)C(CO)=C3C=C12` [compound 14, 2-one-13hydroxy-3,5,8,7(11)-eudesmatetraen-12,8-olide], 49.5 µM.
